These results are taken from patent publication US20040009952A1, “TGF-beta gene overexpression preventing substances for the treatment of disorders connected with pathological overexpression of TGF-beta” (priority 1998, published 2004).

For the assay, the system named is TGF-β1 mRNA. The assay can be described thus: Glucose- or PMA-induced TGF-β1 mRNA overexpression in porcine mesangial cells (RT-PCR, capillary electrophoresis). Type of assay: cell-based. The following applies: PMA; 10 μg/ml GAG; PMA alone 312; mean of 2 determinations. The source says: To assess the inhibitory activity of the GAG action on TGF-β1 overexpression an in vitro assay was established. In this assay structurally distinct GAGs were investigated for their activity to inhibit stimulated TGF-β1 mRNA overexpression in cultured target cell. For the development of glomerulosclerosis (e.g. diabetes) mesangial cells are one major pathological target. Mesangial cells were isolated, characterized and grown as decribed by Kolm et al. Am. J. Physiol. 270: F812-F821, 1996. Cells were stimulated with PMA in the presence and absence of a variety of 10 μg/ml of GAGs and related compounds. Cellular mRNA TGF-β1I levels were determined as decribed in Example II.
The separation and the precise quantification of the PCR products was performed on a Biofocus 3000 capillary electrophoresis system equipped with a laser-induced fluorescence detector (Bio-Rad, Munich, Germany) using an argon-ion laser. Excitation power was approximately 3.5 mW at =488 nm, and fluorescence emission was detected after passing through a 520 nm band pass filter. […] For on-column DNA fluorescence labeling, 1 μl Syber Green I (Molecular probes, Eugene, Or, USA) was addes per ml. […] The migration time for the PCR products was 5.2 min for TGF-β1 (161 bp) and 6.5 min for GAPDH (983 bp) All peak areas were calculated automatically using Biofocus Integration Software. […]

Consider chitosan-6-sulfate, for which the “TGF-β1 mRNA” value is recorded as 116 % of control.
